# Data: patent publication US20190381004A1, “PHOTOPROTECTIVE COMPOSITIONS CONTAINING MALASSEZIA-DERIVED COMPOUNDS AND/OR CHEMICAL ANALOGS THEREOF” (priority 2018, published 2019)
# Read-outs that look alike come from different tables or passages of the source.
# How the values were obtained:
# [1] = cited from earlier work; for sun protection factor (SPF): cream
# [2] = system: Candida albicans and staphylococci; conditions: cited from earlier work
# UV-induced erythema = test: In vivo photoprotection proof of concept: UVB irradiation of treated skin sites, erythema assessment; set-up: species or system human; conditions: one Skin Type IV subject
# Source text: The Malassezin 1% formulation used in this study contained the following ingredients: Water (aqua)—65.939%; Dimethyl isosorbide—20.000%; Olive Oil Glycereth-8 Esters—3.000%; Glycerin—2.991%; Coconut Alkanes—2.700%; Hydroxyethyl Acrylate/Sodium Acryloyldimethyl Taurate Copolymer—1.700%; Malassezin—1.000%; Pentylene Glycol—1.000%; Phenoxyethanol—0.640%; Coco-Caprylate/Caprate—0.300%; Caprylyl Glycol—0.200%; Chlorphenesin—0.160%; Sorbitan Isostearate—0.140%; Tocopherol—0.100%; Polysorbate 60-0.080%; and Disodium EDTA—0.050%.
# A Skin Type IV […] was included in this Proof of Concept study.
# A template of 6 squares was placed on the lower left back (1.5 cm×1.5 cm) of the test subject.
# Twenty-four hours after irradiation, the subject returned for MED assessment.
# A second right lower square was treated twice daily from day 4 to day 7, and a third medial square for one application on day 7. The product vehicle was applied for 7 days twice daily on the left back. The subject returned to the research center for irradiation on day 7. Each test site was irradiated with 120 mJ of UVB exposure. The subject returned in 24 hours for assessment of phototoxicity/photoprotection.
# The subject continued the experiment, receiving Malassezin 1% for a total of 14 days. […]
# [3] = target: T1, arylhydrocarbon receptor (AhR) (Homo sapiens, UniProt P35869); conditions: cited from earlier work
# T1 sequence (P35869 11-848): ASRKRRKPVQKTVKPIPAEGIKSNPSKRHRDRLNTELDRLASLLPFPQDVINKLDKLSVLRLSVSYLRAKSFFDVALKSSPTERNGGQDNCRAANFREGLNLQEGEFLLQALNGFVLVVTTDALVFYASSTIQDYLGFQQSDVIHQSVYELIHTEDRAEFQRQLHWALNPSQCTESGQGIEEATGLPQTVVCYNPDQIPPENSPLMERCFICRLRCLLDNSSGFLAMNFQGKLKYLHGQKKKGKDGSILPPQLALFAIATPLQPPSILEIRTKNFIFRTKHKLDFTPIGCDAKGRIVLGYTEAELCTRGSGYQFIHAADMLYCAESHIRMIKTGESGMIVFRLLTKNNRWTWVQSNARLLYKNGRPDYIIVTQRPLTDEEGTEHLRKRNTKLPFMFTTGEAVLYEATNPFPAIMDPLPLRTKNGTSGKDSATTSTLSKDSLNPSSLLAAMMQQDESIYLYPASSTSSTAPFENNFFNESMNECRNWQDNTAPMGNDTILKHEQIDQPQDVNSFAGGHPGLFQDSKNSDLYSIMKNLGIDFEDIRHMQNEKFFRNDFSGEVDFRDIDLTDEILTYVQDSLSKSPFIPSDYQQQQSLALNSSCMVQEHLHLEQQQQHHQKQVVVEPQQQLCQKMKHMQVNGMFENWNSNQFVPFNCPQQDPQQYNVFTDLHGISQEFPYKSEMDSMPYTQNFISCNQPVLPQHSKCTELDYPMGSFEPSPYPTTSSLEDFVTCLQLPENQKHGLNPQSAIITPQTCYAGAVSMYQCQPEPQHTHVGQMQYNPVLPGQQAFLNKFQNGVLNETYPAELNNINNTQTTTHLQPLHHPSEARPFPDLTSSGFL
Compound,sun protection factor (SPF) ([1]; pityriacitrin concentration 1.25%),sun protection factor (SPF) ([1]; pityriacitrin concentration 2.5%),sun protection factor (SPF) ([1]; pityriacitrin concentration 5%),UV protective effect overall ([1]; in vitro and in vivo test methods in humans),UV-protective effect on microflora ([2]; Candida albicans and staphylococci),toxicity to microflora ([2]; ranges tested),UV-protective properties (conclusion of study) (UV-induced erythema),AhR agonist activity [3]
O=C(c1c[nH]c2ccccc12)c1nccc2c1[nH]c1ccccc12 [Pityriacitrin],1.4,1.5,1.7,very weak,UV-protective effect,no toxicity,–,–
"O=Cc1c(Cc2c[nH]c3ccccc23)[nH]c2ccccc12 [Malassezin, 2-(1H-indol-3-ylmethyl)-1H-indole-3-carbaldehyde]",–,–,–,–,–,–,UV-protective properties,known agonist
O=C1Nc2ccccc2/C1=C1/Nc2ccccc2C1=O [Indirubin],–,–,–,–,–,–,–,known agonist
